In patent US6410054B1, “Immediate release eplerenone compositions” (G. D. Searle & Co., priority 1998, dated 2002):

What was measured:
Type in all cases: in vivo, humans
[1] = Treatment of hypertension study: safety
Description: (§1) The safety and efficacy of a range of doses of eplerenone in the treatment of hypertension relative to placebo were evaluated in a multi-center, randomized, double-blind, placebo-lead-in, parallel group study. […] The primary efficacy variable was the change in cuff diastolic blood pressure (ADBP; sitting) measured at trough plasma levels after eight weeks of double blind treatment. The secondary variables measured were the change in trough cuff systolic blood pressure (ΔSBP; sitting), change in 24 hour mean diastolic blood pressure (ΔDBP), and change in 24 hour mean systolic blood pressure (ΔSBP). The primary and secondary efficacy variables were analyzed to compare BID versus QD dosing regimens for each eplerenone dose group, and both eplerenone and spironolactone versus placebo. Changes in plasma renin and serum aldosterone after eight weeks of dosing were also analyzed as secondary measures of efficacy.
All eplerenone doses lowered cuff diastolic and systolic pressures from baseline after eight weeks of treatment compared to placebo. […] There was, however, a trend toward greater reduction with the BID dosing regimen. […] Over the course of the study, the mean change in heart rate from baseline was minimal in all treatment groups, with the largest mean increase and decrease in heart rate being +2 beats/minute and −1.8 beats/minute, respectively. […] Safety was assessed by comparing the incidence of adverse events, withdrawals, and the results of urinalysis, hematology and biochemistry laboratory tests across the treatment group to the placebo group.

blood pressure = assay: Treatment of hypertension study: blood pressure; conditions: for 24 hour mean ΔDBP / 24 hour mean ΔSBP / Primary Efficacy Variable: ΔDBP at trough (sitting) / ΔSBP at trough (sitting): eight weeks
Description: as §1
The specific pharmaceutical compositions of each eplerenone capsule are reported in Examples 5, 6, 7 and 8. The placebo was a conventional capsule containing lactose.

[2] = Effect of food study: safety and tolerability; conditions: single 100 mg dose, fasted or fed
Description: An open-label randomized, cross-over study was employed to evaluate the pharmacokinetic profiles of eplerenone under fasted and fed conditions, and the safety and tolerability of eplerenone. Safety was assessed based on adverse events, vital signs and clinical laboratory tests. Twelve healthy male subjects were randomized to receive a single 100 mg dose of eplerenone on days 1 and 8 under (i) fasted conditions, or (ii) immediately following a high-fat breakfast. The subjects were orally administered (dosed) a single 100 mg dose of eplerenone in the form of the capsule described in Example 7, together with approximately 200 to 240 mL of water at 0800 hours on days 1 and 8. Subjects randomized to receive a high-fat breakfast were to completely ingest the meal within 20 minutes prior to dosing. The high-fat meal contained approximately 33 g protein, 75 g fat, 58 g carbohydrates and 1000 calories. […] All adverse events were mild in severity.

[3] = all eplerenone treatment groups

## COC(=O)C1CC2=CC(=O)CCC2(C)C23OC2CC2(C)C(CC[C@@]24CCC(=O)O4)C13 (stereo partly drawn) [eplerenone, methyl hydrogen 9,11α-epoxy-17α-hydroxy-3-oxopregn-4-ene-7α,21-dicarboxylate, γ-lactone]
[1]; 1000 mg
  adverse side effects at the highest dose administered: No adverse side effects
[1]; [3]
  potassium: small but consistent increases
  sodium: decreases
[1]; each eplerenone dosing regimen
  tolerability: well tolerated
[1]; eplerenone treatment groups
  BUN, uric acid levels compared to placebo: increases
  urine pH compared to placebo: decreases
Blood pressure; 25 mg BID
  24 hour mean ΔDBP: −3.9 mmHg
  24 hour mean ΔSBP: −7.4 mmHg
  Primary Efficacy Variable: ΔDBP at trough (sitting): −4.5 mmHg
  ΔSBP at trough (sitting): −8.9 mmHg
Blood pressure; 50 mg BID
  24 hour mean ΔDBP: −7.2 mmHg
  24 hour mean ΔSBP: −12.6 mmHg
  Primary Efficacy Variable: ΔDBP at trough (sitting): −7.8 mmHg
  ΔSBP at trough (sitting): −11.8 mmHg
Blood pressure; 50 mg QD
  24 hour mean ΔDBP: −4.8 mmHg
  24 hour mean ΔSBP: −7.1 mmHg
  Primary Efficacy Variable: ΔDBP at trough (sitting): −4.4 mmHg
  ΔSBP at trough (sitting): −4.6 mmHg
Blood pressure; 100 mg QD
  24 hour mean ΔDBP: −6.1 mmHg
  24 hour mean ΔSBP: −9.7 mmHg
  Primary Efficacy Variable: ΔDBP at trough (sitting): −4.5 mmHg
  ΔSBP at trough (sitting): −8.0 mmHg
Blood pressure; 200 mg BID
  24 hour mean ΔDBP: −9.3 mmHg
  24 hour mean ΔSBP: −15.9 mmHg
  Primary Efficacy Variable: ΔDBP at trough (sitting): −9.4 mmHg
  ΔSBP at trough (sitting): −15.8 mmHg
Blood pressure; 400 mg QD
  24 hour mean ΔDBP: −7.6 mmHg
  24 hour mean ΔSBP: −13.0 mmHg
  Primary Efficacy Variable: ΔDBP at trough (sitting): −8.9 mmHg
  ΔSBP at trough (sitting): −14.1 mmHg
Blood pressure; all eplerenone doses, eight weeks of treatment, hypertension patients
  cuff diastolic and systolic pressures from baseline compared to placebo: lowered
Blood pressure; eight weeks of treatment
  blood pressure reduction, QD versus BID dosing regimens: equivalent reductions
[2]
  changes in vital signs or physical examinations: no clinically significant changes
  severity of adverse events: mild
